In the NIST ThermoML archive (doi:10.1021/acs.jced.9b00064):
± gives the expanded uncertainty stated by the source.

Experiments:
[1] = Molar enthalpy of transition or fusion; conditions: Crystal; DSC
[2] = Crystal; DSC

Molar enthalpy of transition or fusion [1]: 4.99 ± 0.478 kcal/mol
Triple point temperature [2]: 355.04 ± 2.1 K
SMILES: c1ccc2ccccc2c1 [naphthalene]
